Experiments:
[1] = test system: Z α1-antitrypsin polymer; conditions: 2 weeks of dosing; Hidvegi et al. Science 2010; cited from earlier work
[2] = biological target: T1, Z-alpha-1-antitrypsin (Z-A1AT) (Homo sapiens, UniProt P01009, E366K/V237A); experiment: Inhibition of Z-alpha-1-antitrypsin polymerisation TR-FRET assay; format: biochemical; conditions: mean, 5 nM Z-A1AT, 72 hours at 37° C.
T1 construct: Z-alpha-1-antitrypsin was purified from human plasma; from tissue; host or cells: human plasma of ZZ homozygous donors
T1 sequence (P01009 25-418 V237A/E366K): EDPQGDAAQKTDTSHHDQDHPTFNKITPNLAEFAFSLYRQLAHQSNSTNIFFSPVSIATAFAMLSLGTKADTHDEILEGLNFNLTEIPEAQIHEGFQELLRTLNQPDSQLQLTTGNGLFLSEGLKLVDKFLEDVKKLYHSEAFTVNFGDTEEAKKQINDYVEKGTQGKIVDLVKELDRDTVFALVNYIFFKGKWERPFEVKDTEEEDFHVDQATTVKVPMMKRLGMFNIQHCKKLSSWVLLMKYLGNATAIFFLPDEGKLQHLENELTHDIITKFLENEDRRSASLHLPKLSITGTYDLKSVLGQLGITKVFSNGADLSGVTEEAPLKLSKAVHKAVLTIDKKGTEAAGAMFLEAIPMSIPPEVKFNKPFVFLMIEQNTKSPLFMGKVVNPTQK
From the text: The potencies of the compounds of the invention for inhibition of Z-alpha-1-antitrypsin (Z-A1AT) polymerisation can be determined by a time-resolved fluorescence energy transfer (TR-FRET) assay performed on purified Z-A1AT as described herein. […] Mean activity data for the assay described below for compounds 1-4:
Inhibition of Z-Alpha-1-Antitrypsin Polymerisation Assay Protocol
Z-alpha-1-antitrypsin was purified from human plasma of donors homozygous for the Z-A1AT form. The purification was performed according to a published protocol (Lomas et al. Biochemistry 1993; 32:500-508) involving ammonium sulphate precipitation, thiol exchange fractionation, and anion exchange fractionation.
Purified Z-A1AT was diluted to 5 nM in PBS buffer with 0.01% Tween-20 and mixed with different concentrations of inhibitor compounds dissolved in DMSO, in 384-well assay plates. Following incubation for 72 hours at 37° C., the amount of Z-A1AT polymer was detected using a time-resolved fluorescence resonance energy transfer (TR-FRET) assay format, by adding an antibody detection mix to the assay plates. The detection mix contained an A1AT-polymer specific monoclonal antibody (Miranda et al. Hepatology 2010; 52: 1078-1088), Terbium-labelled anti-mouse antibody, a polyclonal rabbit anti-A1AT antibody, and an Alexa488-labelled anti-rabbit antibody. TR-FRET data were normalised to controls (DMSO vehicle control giving 0% inhibition, saturating concentrations of an active compound giving 100% inhibition), and IC50 values were derived by fitting 4-parameter logistic curves to the normalised data.
An antibody-based time-resolved fluorescence resonance energy transfer (TR-FRET) assay was used to monitor the polymerisation of 5 nM Z α1-antitrypsin following incubation with varying concentrations of compounds at 37° C. for 72 hours. This assay used the 2C1 monoclonal antibody that is specific to pathological polymers of α1-antitrypsin (Miranda et al. Hepatology 2010; 52: 1078-1088), a polyclonal antibody that binds to all forms of α1-antitrypsin, an anti-mouse IgG fluorescence donor (Eu-W1024) and an anti-rabbit IgG acceptor (APC).

IC50 [2] [nM] | Compound | effects on liver polymer in Z α1-antitrypsin transgenic mice [1]
– | NC(=O)N1c2ccccc2C=Cc2ccccc21 [Carbamazapine] | pronounced effects
2.51 | CCC[C@@H](NC(=O)c1cccc2c1CC(=O)N2)[C@@H](O)c1cccc(Cl)c1C [Compound 2, N-((1S,2R)-1-(3-chloro-2-methylphenyl)-1-hydroxypentan-2-yl)-2-oxoindoline-4-carboxamide] | –
3.16 | CCC[C@@H](NC(=O)c1ccc(F)c2c1CC(=O)N2)[C@@H](O)c1cccc(C#N)c1Cl [Compound 3, N-((1S,2R)-1-(2-chloro-3-cyanophenyl)-1-hydroxypentan-2-yl)-7-fluoro-2-oxoindoline-4-carboxamide] | –
6.31 | CCC[C@@H](NC(=O)c1ccc(F)c2c1CC(=O)N2)[C@@H](O)c1cccc(F)c1Cl [Compound 4, N-((1S,2R)-1-(2-chloro-3-fluorophenyl)-1-hydroxypentan-2-yl)-7-fluoro-2-oxoindoline-4-carboxamide] | –

Reference: patent US11919856B2, “Compounds” (UCL BUSINESS LTD, priority 2018, dated 2024)
